The test addresses T1, Prostaglandin G/H synthase 2 (Homo sapiens, UniProt P35354).
T1 sequence (P35354 whole entry): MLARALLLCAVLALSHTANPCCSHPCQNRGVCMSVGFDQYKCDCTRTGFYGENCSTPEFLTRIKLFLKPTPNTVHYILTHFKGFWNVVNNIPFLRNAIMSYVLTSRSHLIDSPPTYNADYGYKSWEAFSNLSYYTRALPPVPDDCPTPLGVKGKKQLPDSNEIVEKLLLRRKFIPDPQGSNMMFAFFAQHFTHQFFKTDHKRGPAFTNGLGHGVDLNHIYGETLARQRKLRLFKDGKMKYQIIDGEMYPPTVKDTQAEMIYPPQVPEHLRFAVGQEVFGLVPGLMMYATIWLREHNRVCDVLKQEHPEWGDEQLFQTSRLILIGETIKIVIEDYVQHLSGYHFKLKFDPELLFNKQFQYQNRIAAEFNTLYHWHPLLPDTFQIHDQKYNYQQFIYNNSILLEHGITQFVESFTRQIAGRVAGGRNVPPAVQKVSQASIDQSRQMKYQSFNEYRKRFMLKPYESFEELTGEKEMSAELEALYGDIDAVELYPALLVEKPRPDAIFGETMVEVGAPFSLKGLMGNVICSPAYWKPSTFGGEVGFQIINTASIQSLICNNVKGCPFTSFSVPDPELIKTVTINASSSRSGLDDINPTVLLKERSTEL

pIC50: −log10 of the molar value.

`Cc1ccc(-c2c(-c3ccc(S(C)(=O)=O)cc3)[nH]c3ccccc23)cc1`: the pIC50 – broadly, the negative decadic logarithm of the IC50, by convention in mol/L – is 10.05.

The molecule `NS(=O)(=O)c1ccc(-c2[nH]c3ccccc3c2-c2ccccc2)cc1` had a pIC50 of 10.05.

Regarding `Cc1ccc(-c2c(-c3ccc(S(N)(=O)=O)cc3)[nH]c3ccccc23)cc1C`, the pIC50 is 8.84.

As for `NS(=O)(=O)c1ccc(-c2[nH]c3ccccc3c2-c2ccc(Cl)cc2)cc1`, for the setting “read-out: IC50”, the pIC50 is 7.47.

For `NS(=O)(=O)c1ccc(-c2[nH]c3ccc(Cl)cc3c2-c2ccc(Cl)cc2)cc1`, the pIC50 was 9.27.

For `CS(=O)(=O)c1ccc(-c2[nH]c3ccc(F)cc3c2-c2ccccc2)cc1`, under “read-out: IC50”, the pIC50 was 8.30.

Molecule `CS(=O)(=O)c1ccc(-c2[nH]c3ccc(Br)cc3c2-c2ccccc2)cc1` had a negative logarithm of the IC50 (pIC50) of 8.85.

Regarding `NS(=O)(=O)c1ccc(-c2[nH]c3ccc(Br)cc3c2-c2ccccc2)cc1`, under “read-out: IC50”, the pIC50 was 8.30.

In the case of `NS(=O)(=O)c1ccc(-c2[nH]c3ccc(Cl)cc3c2-c2cccc(Cl)c2)cc1`, the pIC50 (read-out: IC50) was 8.50.

`NS(=O)(=O)c1ccc(-c2[nH]c3ccccc3c2-c2ccc(O)cc2)cc1` had a pIC50 of 8.19.

In turn, `Cc1ccc2[nH]c(-c3ccc(S(C)(=O)=O)cc3)c(-c3ccccc3)c2c1` showed a negative-log IC50 (pIC50) of 9.55.

For `CS(=O)(=O)c1ccc(-c2[nH]c3ccc(Cl)cc3c2-c2cccc(Cl)c2)cc1`, the pIC50 (read-out: IC50) is 9.10.

Molecule `CS(=O)(=O)c1ccc(-c2[nH]c3ccccc3c2-c2ccc(Cl)cc2)cc1` gave a pIC50 of 6.84.

For `Cc1ccc(-c2c(-c3ccc(S(C)(=O)=O)cc3)[nH]c3ccccc23)cc1C`, where the note is “read-out: IC50”, the pIC50 is 9.77.

Consider `NS(=O)(=O)c1ccc(-c2[nH]c3ccccc3c2-c2ccc(F)cc2)cc1`, for which, under “read-out: IC50”, the pIC50 was 8.29.

As to `CS(=O)(=O)c1ccc(-c2[nH]c3ccc(Cl)cc3c2-c2ccccc2Cl)cc1`, the pIC50 (read-out: IC50) was 8.00.

As for `COc1ccc(-c2c(-c3ccc(S(C)(=O)=O)cc3)[nH]c3ccccc23)cc1`, the pIC50 is 10.70.

`Cc1ccc2[nH]c(-c3ccc(S(N)(=O)=O)cc3)c(-c3ccccc3)c2c1`: the pIC50 was 10.70.

As for `CS(=O)(=O)c1ccc(-c2[nH]c3ccc(Cl)cc3c2-c2ccc(Cl)cc2)cc1`, under “read-out: IC50”, the pIC50 is 7.07.

As to `CC(=O)NS(=O)(=O)c1ccc(-c2[nH]c3ccccc3c2-c2ccccc2)cc1`, the pIC50 (read-out: IC50) is 9.74.

Molecule `CS(=O)(=O)c1ccc(-c2[nH]c3ccccc3c2-c2ccc(Br)cc2)cc1` gave a pIC50 of 9.43.

The molecule `NS(=O)(=O)c1ccc(-c2[nH]c3ccc(Cl)cc3c2-c2ccccc2)cc1` showed a pIC50 of 9.85.

Turning to `NS(=O)(=O)c1ccc(-c2[nH]c3ccc(F)cc3c2-c2ccccc2)cc1`, under “read-out: IC50”, the pIC50 is 8.70.

Regarding `Cc1ccc(-c2c(-c3ccc(S(N)(=O)=O)cc3)[nH]c3ccccc23)cc1`, the pIC50 (read-out: IC50) is 10.15.

In the case of `NS(=O)(=O)c1ccc(-c2[nH]c3ccc(Cl)cc3c2-c2ccccc2Cl)cc1`, the pIC50 (read-out: IC50) is 7.00.

With `CS(=O)(=O)c1ccc(-c2[nH]c3ccccc3c2-c2ccccc2)cc1`, the pIC50 was 9.22.

These data come from ChEMBL document CHEMBL1156674, “Exploration of physicochemical properties and molecular modelling studies of 2-sulfonyl-phenyl-3-phenyl-indole analogs as cyclooxygenase-2 inhibitors” (Eur J Med Chem, 2008).
